Counter-ions that a name gives are not always drawn.
molecular target: T1, ENaC (Epithelial Sodium Channel) (Mus musculus, UniProt Q61180+Q9WU38+Q9WU39); assay: Ussing Chamber assay (short circuit current, amiloride sensitive I_SC); format: cell-based; conditions: Ussing chamber, mouse kidney M-1 cells, short circuit current, compound added to the apical solution; read-out: IC50
T1 construct: Mouse kidney M−1 cells were cultivated in DMEM; endogenous in cells; host or cells: Mouse kidney M-1 cells, cultivated with dexamethasone on transwell filters
T1 sequence (Q61180 1-699): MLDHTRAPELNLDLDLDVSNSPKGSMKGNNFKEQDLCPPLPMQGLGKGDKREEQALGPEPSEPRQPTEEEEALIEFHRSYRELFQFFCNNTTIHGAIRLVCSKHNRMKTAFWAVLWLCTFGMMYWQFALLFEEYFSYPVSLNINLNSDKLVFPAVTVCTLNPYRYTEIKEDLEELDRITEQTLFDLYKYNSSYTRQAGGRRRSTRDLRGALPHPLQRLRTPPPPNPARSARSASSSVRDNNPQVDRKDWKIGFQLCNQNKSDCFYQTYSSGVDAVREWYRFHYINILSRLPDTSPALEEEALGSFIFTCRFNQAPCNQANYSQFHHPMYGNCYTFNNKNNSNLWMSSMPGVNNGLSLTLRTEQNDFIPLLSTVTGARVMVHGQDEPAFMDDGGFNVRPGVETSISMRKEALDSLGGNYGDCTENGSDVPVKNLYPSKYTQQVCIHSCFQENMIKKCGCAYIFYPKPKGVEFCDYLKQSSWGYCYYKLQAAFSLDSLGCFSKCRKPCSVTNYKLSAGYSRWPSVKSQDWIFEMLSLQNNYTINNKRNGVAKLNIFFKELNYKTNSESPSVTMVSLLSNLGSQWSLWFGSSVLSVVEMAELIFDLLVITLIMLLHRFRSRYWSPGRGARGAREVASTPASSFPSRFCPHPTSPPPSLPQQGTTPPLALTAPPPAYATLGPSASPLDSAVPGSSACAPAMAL
T1 sequence (Q9WU38 1-638): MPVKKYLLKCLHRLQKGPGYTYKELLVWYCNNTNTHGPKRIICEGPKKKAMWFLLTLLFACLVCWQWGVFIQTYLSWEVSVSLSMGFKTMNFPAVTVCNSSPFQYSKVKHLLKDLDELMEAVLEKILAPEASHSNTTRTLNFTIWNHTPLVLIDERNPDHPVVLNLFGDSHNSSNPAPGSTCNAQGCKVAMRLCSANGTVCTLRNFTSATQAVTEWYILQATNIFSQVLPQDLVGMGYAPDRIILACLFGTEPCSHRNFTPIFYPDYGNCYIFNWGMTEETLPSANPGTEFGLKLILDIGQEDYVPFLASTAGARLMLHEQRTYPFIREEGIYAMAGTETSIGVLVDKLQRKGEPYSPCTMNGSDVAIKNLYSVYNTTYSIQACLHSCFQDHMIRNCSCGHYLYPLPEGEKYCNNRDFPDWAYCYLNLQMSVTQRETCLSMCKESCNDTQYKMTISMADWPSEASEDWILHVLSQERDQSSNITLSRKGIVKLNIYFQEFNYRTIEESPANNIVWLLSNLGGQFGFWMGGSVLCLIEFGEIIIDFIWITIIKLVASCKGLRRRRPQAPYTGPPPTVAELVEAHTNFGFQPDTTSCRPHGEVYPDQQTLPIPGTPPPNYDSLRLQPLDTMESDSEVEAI
T1 sequence (Q9WU39 1-655): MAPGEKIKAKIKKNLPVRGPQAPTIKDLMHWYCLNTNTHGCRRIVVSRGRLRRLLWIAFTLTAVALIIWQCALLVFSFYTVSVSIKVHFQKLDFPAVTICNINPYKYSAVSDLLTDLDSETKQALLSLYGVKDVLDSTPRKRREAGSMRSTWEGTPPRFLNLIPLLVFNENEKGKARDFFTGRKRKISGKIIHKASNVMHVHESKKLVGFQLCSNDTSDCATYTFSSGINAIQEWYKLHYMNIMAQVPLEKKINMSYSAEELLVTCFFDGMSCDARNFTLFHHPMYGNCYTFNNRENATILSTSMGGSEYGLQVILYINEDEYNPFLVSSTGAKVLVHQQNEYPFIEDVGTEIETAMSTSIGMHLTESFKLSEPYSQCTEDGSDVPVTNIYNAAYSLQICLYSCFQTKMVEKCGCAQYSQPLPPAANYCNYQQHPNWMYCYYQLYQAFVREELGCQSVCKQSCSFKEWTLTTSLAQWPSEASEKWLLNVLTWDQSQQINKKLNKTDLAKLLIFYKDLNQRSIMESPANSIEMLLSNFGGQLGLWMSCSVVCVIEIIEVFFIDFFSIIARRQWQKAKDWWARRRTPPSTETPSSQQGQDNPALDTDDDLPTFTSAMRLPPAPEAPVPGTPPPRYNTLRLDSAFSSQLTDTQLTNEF
In short: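 Mouse kidney M-1 cells grown 10–12 days on filters with 5 μM dexamethasone, measured in Caco-2 transport buffer at 37° C under voltage clamp. Compound applied apically at 3 μM or 1-3-10 μM; 3 μM amiloride added at end. Short circuit current inhibition given as percent of amiloride effect or IC50.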

First: COCCN(CCOC)C(=O)COc1ccc(CCC[N+]2(CCCc3ccc(OCC(=O)N(CCOC)CCOC)cc3)CCC[C@H](NC(=O)c3nc(Cl)c(N)nc3N)C2)cc1 [Example 6.21]
Second: CN(C)C(=O)COc1ccc(CCC[N+]2(CCCc3ccc(OCC(=O)N(C)C)cc3)CCC[C@H](NC(=O)c3nc(Cl)c(N)nc3N)C2)cc1 [Example 6.12]
The IC50 of the first is 5.8-fold lower: 0.023 µM for the first, 0.134 µM for the second.

Going from Nc1nc(N)c(C(=O)NC2CCC[N+](CCc3c[nH]c4ccccc34)(CCc3c[nH]c4ccccc34)C2)nc1Cl (stereo not shown) [Example 10.1, 3-[(3,5-Diamino-6-chloro-pyrazine-2-carbonyl)-amino]-1,1-bis-[2-(1H-indol-3-yl)-ethyl]-piperidinium chloride] to Nc1nc(N)c(C(=O)NC2CCC[N+](CCCc3ccccc3)(CCCc3ccccc3)C2)nc1Cl (stereo not shown) [Example 10.4, 3-[(3,5-Diamino-6-chloro-pyrazine-2-carbonyl)-amino]-1,1-bis-(3-phenyl-propyl)-piperidinium chloride], the IC50 falls from 0.14 µM to 0.015 µM (9.3-fold). The second is the more potent here.

Compared with Nc1nc(N)c(C(=O)N[C@H]2CCC[N+](CCOc3ccccc3)(CCOc3ccccc3)C2)nc1Cl [Example 10.7, 3-[(3,5-Diamino-6-chloro-pyrazine-2-carbonyl)-amino]-1,1-bis-[2-phenoxy-ethyl]-piperidinium chloride], COc1ccc(CCC[N+]2(CCCCc3ccccc3)CCCC(NC(=O)c3nc(Cl)c(N)nc3N)C2)cc1 (stereo not shown) [Example 3.4] is 4.6-fold lower in IC50: 0.158 µM for the first, 0.034 µM for the second. The second is the more potent here.

Compared with CN(Cc1ccccn1)C(=O)COc1ccc(CCC[N+]2(CCCc3ccc(OCC(=O)N(C)Cc4ccccn4)cc3)CCC[C@H](NC(=O)c3nc(Cl)c(N)nc3N)C2)cc1 [Example 6.22], CN(CC#N)C(=O)COc1ccc(CCC[N+]2(CCCc3ccc(OCC(=O)N(C)CC#N)cc3)CCC[C@H](NC(=O)c3nc(Cl)c(N)nc3N)C2)cc1 [Example 6.65] is 5.2-fold higher in IC50: 0.018 µM for the first, 0.094 µM for the second. The first is the more potent here.

Compared with Nc1nc(N)c(C(=O)N[C@H]2CCC[N+](CCCc3ccc(OCC(=O)N4CCC(O)(CO)CC4)cc3)(CCCc3ccc(OCC(=O)N4CCC(O)(CO)CC4)cc3)C2)nc1Cl [Example 6.36], Nc1nc(N)c(C(=O)N[C@H]2CCC[N+](CCCc3ccc(OCC(=O)N4CC[S+]([O-])CC4)cc3)(CCCc3ccc(OCC(=O)N4CC[S+]([O-])CC4)cc3)C2)nc1Cl [Example 6.30] is 3.1-fold higher in IC50: 0.067 µM for the first, 0.209 µM for the second.

Going from COc1ccc(CCC[N+]2(CCCc3ccc(C(=O)NCCOCCOCCO)cc3)CCCC(NC(=O)c3nc(Cl)c(N)nc3N)C2)cc1 (stereo not shown) [Example 5.5] to CN1CCOC(CNC(=O)COc2ccc(CCC[N+]3(CCCc4ccc(OCC(=O)NCC5CN(C)CCO5)cc4)CCC[C@H](NC(=O)c4nc(Cl)c(N)nc4N)C3)cc2)C1 (stereo partly shown) [Example 6.47], the IC50 falls from 0.07 µM to 0.011 µM (6.4-fold).

same assay, conditions: Ussing chamber, mouse kidney M-1 cells, short circuit current; unit inferred; read-out: IC50

First: Cn1ccnc1CNC(=O)COc1cccc(CCC[N+]2(CCCc3cccc(OCC(=O)NCc4nccn4C)c3)CCC[C@H](NC(=O)c3nc(Cl)c(N)nc3N)C2)c1 [Example 10.11, (S)-3-[(3,5-Diamino-6-chloro-pyrazine-2-carbonyl)-amino]-1,1-bis-[3-(3-{[(1-methyl-1H-imidazol-2-ylmethyl)-carbamoyl]-methoxy}-phenyl)-propyl]-piperidinium hydroxide]
Second: Nc1nc(N)c(C(=O)NC2CCC[N+](CCCc3cccc(O)c3)(CCCc3cccc(O)c3)C2)nc1Cl (stereo not shown) [Example 10.9, 3-[(3,5-Diamino-6-chloro-pyrazine-2-carbonyl)-amino]-1,1-bis-[3-(3-hydroxy-phenyl)propyl]-piperidinium chloride]
The IC50 of the first is 1.9-fold lower: 0.007 µM for the first, 0.013 µM for the second.

First: CN(C)CCOc1ccc(CCC[N+]2(CCCc3ccc(OCCN(C)C)cc3)CCC[C@H](NC(=O)c3nc(Cl)c(N)nc3N)C2)cc1 [Example 9.5, 3-[(3,5-Diamino-6-chloro-pyrazine-2-carbonyl)-amino]-1,1-bis-{3-[4-(2-dimethylamino-ethoxy)-phenyl]-propyl}-piperidinium chloride dihydrochloride]
Second: COCCOc1ccc(CCC[N+]2(CCCc3ccc(OCCOC)cc3)CCCC(NC(=O)c3nc(Cl)c(N)nc3N)C2)cc1 (stereo not shown) [Example 9.3, 3-[(3,5-Diamino-6-chloro-pyrazine-2-carbonyl)-amino]-1,1-bis-{3-[4-(2-methoxy-ethoxy)-phenyl]-propyl}-piperidinium chloride]
The IC50 of the first is 2.9-fold higher: 0.063 µM for the first, 0.022 µM for the second. The second is the more potent here.

same assay, conditions: Ussing chamber, mouse kidney M-1 cells, short circuit current; value printed in the example text with μM; read-out: IC50

First: COC(=O)COc1cccc(CCC[N+]2(CCCc3cccc(OCC(=O)OC)c3)CCC[C@H](NC(=O)c3nc(Cl)c(N)nc3N)C2)c1 [Example 10.10, (S)-3-[(3,5-Diamino-6-chloro-pyrazine-2-carbonyl)-amino]-1,1-bis-[3-(3-methoxycarbonylmethoxy-phenyl)-propyl]-piperidinium chloride]
Second: COC(=O)CNC(=O)c1ccc(CCC[N+]2(CCCc3ccc(OC)cc3)CCCC(NC(=O)c3nc(Cl)c(N)nc3N)C2)cc1 (stereo not shown) [Example 5.2, 3-[(3,5-Diamino-6-chloro-pyrazine-2-carbonyl)-amino]-1-{3-[4-(methoxycarbonylmethylcarbamoyl)-phenyl]-propyl}-1-[3-(4-methoxy-phenyl)-propyl]-piperidinium chloride]
The IC50 of the first is 1.7-fold lower: 0.025 µM for the first, 0.042 µM for the second. The first is the more potent here.

With Nc1nc(N)c(C(=O)NC2CCC[N+](CCCc3ccc(OCC(=O)O)cc3)(CCCc3ccc(OCC(=O)O)cc3)C2)nc1Cl (stereo not shown) [Example 6.1, 1,1-Bis-[3-(4-carboxymethoxy-phenyl)-propyl]-3-[(3,5-diamino-6-chloro-pyrazine-2-carbonyl)-amino]-piperidinium chloride] the IC50 was > 1 µM.
